What was measured:
Type in all cases: biochemical, human
PCT [1] = experiment: Signal-to-noise ratio and linear range for PCT detection, purified fusion proteins (Example 3); design: key: luminescence normalized against the background value; conditions: PCT 3.3 (pg/ml); normalized against the background value
PCT [2] = experiment: as above; design: key to luminescence value: luminescence normalized against the background value; conditions: for Signal-to-noise ratio at 1000 pg/ml: large subunit 100 nM, small subunit fusion 180 nM, CTZ-h 25 µM, 140 s; for signal-to-noise ratios in luciferase dual-antibody complementary activation for PCT detection: statement in words on Table 3 and Figure 2
Procedure: Test Methods: • (1) MBP-PCT protein was diluted with PBSAD in 10-fold gradient starting from 100 ng/ml, with 8 gradients in total, and 10 µl was added per well; • (2) The large subunit-SCFV5 fusion protein was diluted with PBSA to 100 nM, and 10 µl was added per well; • (3) Different rSCFV18-small subunit mutant fusion proteins were diluted with PBSA to 180 nM, and 10 µl of each was added per well; • (4) The plate was mixed slightly and incubated at 37°C for 10 min; and • (5) 50 µl of Obuffer 6.37-3 containing 25 µM of CTZ-h was added, and after 140 s, the luminescence value was detected. The results are shown after normalization against the background value.

PCT [3] = experiment: Luciferase dual-antibody complementary activation assay for PCT detection, clone supernatants, retest with CTZ-h (Example 1); conditions: for Signal-to-noise ratio: RLU antigen+/RLU antigen-, MBP-PCT 3.3 ng/ml, CTZ-h; for PCT+: luminescence signal value with MBP-PCT 3.3 ng/ml, large subunit-rSCFV5 50 nM, supernatant; for PCT+ / PCT-: retest CTZ-h 25 µM, read after 60 s; for PCT-: luminescence signal value, background control PBSAD without PCT
Procedure: In order to improve the signal-to-noise ratio and complementary activity of the luciferase dual-antibody complementary activation assay, a series of complementary luciferase small subunits were prepared in this example. Large subunit-rSCFV5 fusion protein (SEQ ID NO: 87) was kept unchanged, and the small subunit sequence of the rSCFV18-small subunit P114 fusion protein (SEQ ID NO: 88) was modified by semi-randomization to prepare rSCFV18-small subunit mutant fusion proteins. Based on the sequence of small subunit P114, and with reference to the 3D structure of complementary luciferase, computer-aided sequence design was employed to generate a library with a theoretical diversity of 2.49*10^6. Primers were designed for PCR amplification using the plasmid pComb3x of rSCFV18-small subunit P114 fusion protein as a template. Subsequently, an expression vector library was constructed by means of restriction digestion and ligation (SfiI, NheI), and a semi-random amino acid mutation library was introduced into the small subunit position and transformed into HB2151 competent cells, yielding a library capacity of 7.6*10^9. The 100 plates were spread, and 9,500 single clones were picked and inoculated into 600 µL of 2YTA medium, followed by incubation at 37°C with shaking at 250 rpm for 2 h. When the bacterial density reached approximately OD600 = 0.6~1.0, IPTG was then added to a final concentration of 1 mM, and the culture was further incubated at 30°C with shaking at 250 rpm for 20 h. The next day, the bacteria were collected by centrifugation at 4°C, 4,500g for 10min. The supernatant was discarded, and the precipitate was resuspended with 200µl of PBS containing polymyxin B at a final concentration of 20,000 u/ml. The suspension was incubated at room temperature with shaking at 100rpm for 1h, and then centrifuged at 4500g for 10min, and the supernatant was used for the test.
Test Methods: • (1) The concentration of large subunit-rSCFV5 fusion protein was diluted to 50 nM, and 15 µl was added per well; • (2) MBP-PCT fusion protein was diluted to 3.3 ng/ml with PBSAD, and 15 µl was added per well. The background control was PBSAD, and 10 µl was added per well; • (3) HB2151 strain containing expression plasmids with different small subunit were induced by 1 mM of IPTG at 30°C overnight, then treated with polymyxin B for 1.5 h, and centrifuged to collect the supernatant, and 2.5 µl supernatant was added per well; • (4) The above three components were slightly mixed, incubated at 37°C for 7 min, and Obuffer 6.37-3 containing Furimazine at a concentration of 25 µM was added, and after 80 s, the luminescence signal value was detected using a bioluminescence detector; and • (5) Clones with RLU higher than 10,000 and a signal-to-noise ratio (RLU antigen+/RLU antigen-) higher than that of the rSCFV18-small subunit P114 fusion protein were selected for retesting. The substrate was replaced with CTZ-h for retesting. Obuffer 6.37-3 containing CTZ-h at a concentration of 25 µM was added, and after 60 s, the luminescence signal value was detected using a bioluminescence detector.

PCT [4] = experiment: Complementation of purified rSCFV18-small subunit mutant fusion protein with large subunit-rSCFV5 fusion protein, PCT gradient (Example 2); conditions: for luminescence value: CTZ-h 25 µM, 20 s; for Signal-to-noise ratio at 1000 pg/ml: PCT 1000 pg/ml versus 0
Procedure: Protein expression and purification of small subunit mutants: The strains containing plasmids of different small subunits inTable 2, prepared in Example 1, were inoculated into 200ml of 2YTA medium and cultured at 37°C with shaking at 250 rpm for about 3h. When the OD600 reached 1.0, IPTG was added to a final concentration of 1mM, and the culture was further incubated at 30°C with shaking at 250rpm for 20h. The culture were centrifuged at 5,000g for 10min, and the precipitate was resuspended with 10ml of PBS, added with polymyxin B to 20,000u/ml. The suspension was inverted and mixed at room temperature for 1h, and centrifuged at 10,000g to collect the supernatant. The rSCFV18-small subunit mutant fusion protein was purified according to the standard procedure for his-tag protein purification using Ni-NTA resin.
In the same tube, the large subunit-rSCFV5 fusion protein was diluted with PBSA to 50 nM; rSCFV18-small subunit mutant fusion protein was diluted to 90 nM, mixed well, and then 22 µl was added per well; the MBP-PCT fusion protein was diluted in 3-fold gradient with PBSAD (in pg/ml), with 8 gradients in total, 10µl was added per well, and the background control was PBSAD and 10 µl was added per well; the plate was mixed with slight shaking and incubated at 37°C for 6 min, 50 µl of Obuffer 6.37-3 containing 25 µM of CTZ-h then was added, and after 20 s, the luminescence value was detected.

[5] = PCT 100 (pg/ml), normalized against the background value
[6] = PCT 1000 (pg/ml), normalized against the background value
[7] = PCT 10000 (pg/ml), normalized against the background value
[8] = PCT 100000 (pg/ml), normalized against the background value
[9] = PCT 0 pg/ml (background control PBSAD)
[10] = PCT 1000 pg/ml, large subunit 50 nM, small subunit fusion 90 nM

Row | Sequence | luminescence value (PCT [1]) | luminescence value (PCT [2]; PCT 0, background, normalized) | luminescence value (PCT [2]; [5]) | luminescence value (PCT [2]; [6]) | luminescence value (PCT [2]; [7]) | luminescence value (PCT [2]; [8]) | Signal-to-noise ratio at 1000 pg/ml (PCT [2]) | signal-to-noise ratios in luciferase dual-antibody complementary activation for PCT detection (PCT [2]) | Signal-to-noise ratio (PCT [3]) | PCT+ (PCT [3]) | PCT- (PCT [3]) | luminescence value (PCT [4]; [9]) | luminescence value (PCT [4]; PCT 1.37 pg/ml) | luminescence value (PCT [4]; PCT 4.12 pg/ml) | luminescence value (PCT [4]; PCT 12.35 pg/ml) | luminescence value (PCT [4]; PCT 37.04 pg/ml) | luminescence value (PCT [4]; PCT 111.1 pg/ml) | luminescence value (PCT [4]; PCT 333.3 pg/ml) | Signal-to-noise ratio at 1000 pg/ml (PCT [4]) | luminescence value (PCT [4]; [10])
1 | VDGWRLHEKIS [RA141] | 5414 | 5000 | 8685 | 42762 | 333241 | 1399433 | 8.6 | higher signal-to-noise ratios | 65.1 | 30623 | 463 | – | – | – | – | – | – | – | – | –
2 | VEGYRLFDRKL [RB135] | 5698 | 5000 | 11916 | 67860 | 536667 | 1936894 | 13.6 | – | 43.7 | 35245 | 788 | 380 | 367 | 422 | 575 | 943 | 2137 | 5480 | 40.0 | 15181
3 | VEGYRLFNKEW [RB284] | 5288 | 5000 | 7039 | 24677 | 187742 | 861878 | 4.9 | higher signal-to-noise ratios | 12.2 | 3993 | 302 | – | – | – | – | – | – | – | – | –
4 | VEGWRLHEKIS [RA116] | 5301 | 5000 | 11673 | 69976 | 515360 | 1784513 | 14.0 | higher signal-to-noise ratios | 45.5 | 55957 | 1204 | 362 | 406 | 473 | 602 | 1212 | 2700 | 7341 | 56.6 | 20492
5 | VEGYRLFDKKW [RB239] | 5622 | 5000 | 11004 | 57648 | 466004 | 2167580 | 11.5 | higher signal-to-noise ratios | 67.7 | 31936 | 465 | 288 | 301 | 332 | 407 | 590 | 1318 | 3364 | 31.1 | 8952
6 | VSGWRIHEKIS [RA120] | 5257 | 5000 | 13450 | 90072 | 694625 | 1999707 | 18.0 | higher signal-to-noise ratios | 36.9 | 81063 | 2139 | – | – | – | – | – | – | – | – | –
7 | VEGYRLFEKVW [RB085] | 5486 | 5000 | 11950 | 69595 | 554514 | 1830312 | 13.9 | higher signal-to-noise ratios | 38.2 | 47227 | 1206 | 337 | 384 | 445 | 556 | 932 | 2102 | 5551 | 45.8 | 15446

Reference: patent publication EP4700040A1, “PEPTIDE AND LUMINESCENT COMPLEX CONTAINING SAME” (Shenzhen Loggene Life Science & Technology Co., Ltd., priority 2023, dated 2024)
